As a reminder, the EC50 is the concentration that produces a half-maximal response. By IC50 is commonly meant the concentration that gives 50% inhibition. The inhibition is the change of the read-out against control, counted positive when it falls. Broadly, the melting point is the temperature, or range, at which the solid turns liquid.

In series [1] the test system is Bloodstream form trypomastigotes of T. b. brucei strain 427 (WT). The series can be described thus: Resazurin-based susceptibility assay, wild-type T. b. brucei. In kind it is cell-based. The settings on record: for EC50: BSF trypomastigotes strain 427, n = 3; for trypanocidal activity against T. brucei (in words): compounds with short linkers (C-3). On the procedure: . […] This finding was in agreement with previous reports on TAO inhibitors showing that a decrease in efficacy against T. b. brucei growth inhibition was observed as chain length decreased.[8],[9],[23]
(§1) BSF trypanosomes of monomorphic strains Lister 427 (WT), multi-drug-resistant clone B48, and the AQP1-3 KO, which lacks all aquaglyceroporins,[26] were grown in complete HMI-9 with 10% fetal bovine serum, exactly as described, and tested using a standard resazurin-based assay with 23 doubling dilutions for each compound starting at 100 μM.[27] Human embryonic kidney (HEK) cells were cultured and assayed with a resazurin-based assay exactly as described previously.[9] EC50 values were calculated by nonlinear regression with an equation for a sigmoid curve with variable slope (Prism 8.0, GraphPad).
(In general: The colour change of resazurin is a common sign of viable cells or microbes.)

Series [2] relates to T. b. brucei strain resistant to pentamidine (B48). The series can be described thus: microbe, parasite or virus in culture. The format is cell-based. The settings on record: for EC50: Trypanosoma brucei, read-out: T. b. brucei EC50 B48.
Another series in a line: in vitro. Conditions: human.
Series [3] relates to T. brucei cell line from which all aquaporins were knocked out (AQP1-3 KO). The series can be described thus: microbe, parasite or virus in culture. In kind it is cell-based, T. b. brucei. Conditions: for EC50: Trypanosoma brucei, read-out: T. b. brucei EC50 AQP1-3 KO; for RF (resistance factor relative to WT), AQP1-3 KO: EC50 AQP1-3 KO / EC50 WT. On the procedure:
as §1

In series [4] the test system is human embryonic kidney (HEK) cells. Conditions: HEK CC50 / T. b. brucei WT EC50.
Series [5] concerns the target Purified recombinant trypanosome alternative oxidase (ΔMTS-TAO) (Trypanosoma brucei brucei, UniProt Q26710). The series can be described thus: Inhibition of ubiquinol oxidase activity of purified ΔMTS-TAO. Conditions: for IC50: rTAO IC50, purified ΔMTS-TAO, n = 3; for inhibition at 40 µM: read-out: rTAO % inhibition at 40 μM; for inhibition at 10 µM: read-out: rTAO % inhibition (compound tested at 10 μM).

“And” between values parts separate entries of the source, which are not always exact repeats. Equal values may be shown once.

Chain of Purified recombinant trypanosome alternative oxidase (ΔMTS-TAO) (Q26710 26-329, stated change not applied): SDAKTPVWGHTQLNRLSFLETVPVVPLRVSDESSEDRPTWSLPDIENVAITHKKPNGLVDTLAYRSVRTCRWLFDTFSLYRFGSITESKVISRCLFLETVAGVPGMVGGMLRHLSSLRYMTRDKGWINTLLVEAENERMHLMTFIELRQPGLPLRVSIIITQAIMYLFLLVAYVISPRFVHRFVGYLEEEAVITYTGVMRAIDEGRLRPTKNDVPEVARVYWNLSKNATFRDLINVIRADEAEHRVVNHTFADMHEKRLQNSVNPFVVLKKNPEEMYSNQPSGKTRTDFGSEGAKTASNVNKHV

With `CC(=O)O.Cc1cc(O)cc(O)c1C(=O)NCCCOc1ccc(C(=N)N)cc1` [1a], the EC50 in series [1] (Trypanosoma brucei) and in series [2] was over 100 µM throughout. For the same molecule, the “trypanocidal activity against T. brucei (in words)” value (shortened to “trypanocidal activity”) in series [1] was “inactive”. Also, the CC50 in “in vitro” was over 200 µM.
Take `CC(=O)O.Cc1cc(O)cc(O)c1C(=O)NCCCCCCOc1ccc(C(=N)N)cc1` [1b]: the EC50 in series [1] (Trypanosoma brucei) stood at 15.5 ± 0.6 µM; in series [2], 28 ± 0.5 µM; in series [3], 17.4 ± 0.9 µM. For the same molecule, the “SI (selectivity index) = CC50/EC50 (WT)” value in series [4] is over 12.9. Besides, the CC50 in “in vitro” was over 200 µM. The IC50 in series [5] is over 40 µM. Also, in series [5], the inhibition at 40 µM was 12.5%.
In the case of `CC(=O)O.Cc1cc(O)cc(O)c1C(=O)NCCCCCCCCCCCCOc1ccc(C(=N)N)cc1` [1c], the EC50 is 3.3 ± 0.2 µM in series [1], under 4 µM in series [1] (Trypanosoma brucei) and 3.6 ± 0.1 µM in series [2]. Moreover, the “SI (selectivity index) = CC50/EC50 (WT)” value in series [4] stood at 13.2. Besides, in the series “in vitro”, the CC50 turned out to be 43.5 ± 5.4 µM. Besides, the IC50 in series [5] is over 40 µM. Besides, in series [5], the inhibition at 40 µM was determined as 39.3%.
In series [1] (Trypanosoma brucei), `Cc1cc(O)cc(O)c1C(=O)NCCCCCCCCCCCCCCOc1ccc(C(=N)N)cc1` [1d] registered an EC50 of 18.6 ± 1.1 µM. The EC50 in series [2] was 28.9 ± 5.2 µM. The molecule also had a CC50 in “in vitro” of over 200 µM. In addition, in series [5], the IC50 is over 40 µM and the inhibition at 40 µM was 31.4%.
Consider `CC(=O)O.Cc1cc(O)cc(O)c1C(=O)NCCCCCCCCCCCCOc1ccc(C2=NCCN2)cc1` [2c], for which the EC50 in series [3] was determined as 2.9 ± 0.4 µM. In addition, the “SI (selectivity index) = CC50/EC50 (WT)” value in series [4] is given as 39.1. For the same molecule, the CC50 in “in vitro” came to 67.2 ± 0.8 µM. Also, in series [5], the IC50 is over 10 µM and the inhibition at 10 µM worked out at 10%.
Molecule `CC(=O)O.Cc1cc(O)cc(O)c1C(=O)NCCCCCCCCCCCCOc1ccc(N=C2NCCN2)cc1` [3c] showed a melting point of 44.5 to 51.1 °C. Moreover, the EC50 in series [1] is 2.7 ± 0.4 µM. The molecule also had an EC50 in series [1] (Trypanosoma brucei) of under 4 µM. The EC50 in series [3] amounted to 3.92 ± 0.03 µM. Also, the “SI (selectivity index) = CC50/EC50 (WT)” value in series [4] is listed as over 36.5. Also, the CC50 in “in vitro” is over 100 µM. Moreover, in series [5], the IC50 came out at 22.5 ± 0.3 µM and the inhibition at 10 µM was 46.3%.
`Cc1cc(O)cc(O)c1C(=O)NCCCOc1ccc(C#N)cc1` [7a]: the EC50 in series [1] (Trypanosoma brucei) turned out to be 37.2 ± 3.4 µM. Also, in series [1], the “trypanocidal activity” value was “poorly active”. In addition, the EC50 in series [2] was found to be 50.8 ± 2.7 µM. Besides, the “SI (selectivity index) = CC50/EC50 (WT)” value in series [4] is reported as over 5.3. The CC50 in the series “in vitro” is over 200 µM. Besides, in series [5], the IC50 was over 40 µM and the inhibition at 40 µM amounted to 28.8%.
As for `Cc1cc(O)cc(O)c1C(=O)NCCCCCCOc1ccc(C#N)cc1` [7b], the EC50 stood at 30.4 ± 0.4 µM in series [1] (Trypanosoma brucei), 27.7 ± 2 µM in series [2] and 30.5 ± 0.7 µM in series [3]. In addition, the CC50 in “in vitro” was over 200 µM. Also, the IC50 in series [5] is 1.52 µM and 1.5 µM. Also, the inhibition at 40 µM in series [5] is 96.2%.
The molecule `Cc1cc(O)cc(O)c1C(=O)NCCCCCCCCCCCCOc1ccc(C#N)cc1` [7c] came in with a melting point of 81.9 °C. Also, in series [1] (Trypanosoma brucei), the EC50 was determined as 15.6 ± 0.7 µM. Also, the EC50 in series [2] came to 15.9 ± 0.7 µM. Moreover, the “SI (selectivity index) = CC50/EC50 (WT)” value in series [4] was found to be 3.7. The molecule also came in with a CC50 in “in vitro” of 57.1 ± 0.1 µM. In series [5], the IC50 is over 40 µM and the inhibition at 40 µM turned out to be 27.4%.
Turning to `Cc1cc(O)cc(O)c1C(=O)NCCCCCCCCCCCCCCOc1ccc(C#N)cc1` [7d], the EC50 in series [1] (Trypanosoma brucei) is 14.8 ± 0.5 µM. Also, the EC50 in series [2] was 15.7 ± 0.5 µM. Also, in series [4], the “SI (selectivity index) = CC50/EC50 (WT)” value was 3.8. Also, the CC50 in the series “in vitro” turned out to be 56.8 ± 0.2 µM. Further, in series [5], the IC50 is 16.4 ± 0.7 µM and the inhibition at 40 µM is 89.7%.
`Cc1cc(O)cc(O)c1C(=O)NCCCOc1ccc(C(=N)NO)cc1` [8a] yielded an EC50 in series [1] (Trypanosoma brucei) of over 100 µM. The “trypanocidal activity” value in series [1] is “inactive”. Moreover, the EC50 in series [2] was over 100 µM. Further, in “in vitro”, the CC50 was over 200 µM. In series [5], the IC50 was over 40 µM and the inhibition at 40 µM was 14.1%.
Turning to `Cc1cc(O)cc(O)c1C(=O)NCCCCCCOc1ccc(C(=N)NO)cc1` [8b], the EC50 in series [1] (Trypanosoma brucei) is 19.5 ± 1 µM; in series [2] it was 36 ± 1.8 µM; in series [3], 21 ± 1 µM. Also, in series [4], the “SI (selectivity index) = CC50/EC50 (WT)” value is 3.9. The molecule further had a CC50 in “in vitro” of 76.8 ± 7.2 µM. Besides, the IC50 in series [5] was over 40 µM. In addition, in series [5], the inhibition at 40 µM is -14.9%.
In turn, `Cc1cc(O)cc(O)c1C(=O)NCCCCCCCCCCCCOc1ccc(C(=N)NO)cc1` [8c] showed an EC50 in series [1] (Trypanosoma brucei) of 8.4 ± 1.1 µM. For the same molecule, the EC50 in series [2] was determined as 9.1 ± 0.5 µM. For the same molecule, the “SI (selectivity index) = CC50/EC50 (WT)” value in series [4] is given as 13. This molecule registered a CC50 in the series “in vitro” of 109 ± 1.6 µM. Further, in series [5], the IC50 is over 40 µM and the inhibition at 40 µM turned out to be 44.8%.
In turn, `Cc1cc(O)cc(O)c1C(=O)NCCCCCCCCCCCCCCOc1ccc(C(=N)NO)cc1` [8d] yielded an EC50 in series [1] (Trypanosoma brucei) of 29 ± 2.2 µM. The EC50 in series [2] turned out to be 27.1 ± 2.4 µM. Further, the CC50 in “in vitro” is over 200 µM. Besides, in series [5], the IC50 is over 40 µM and the inhibition at 40 µM was -3.4%.
Molecule `Cc1cc(O)cc(O)c1C(=O)NCCCCCCCCCCCCOc1ccc([N+](=O)[O-])cc1` [11c] returned a melting point of 102.3 to 106.3 °C. The molecule also gave an EC50 in series [1] (Trypanosoma brucei) of 9.5 ± 0.5 µM. Further, the EC50 in series [3] was found to be 10.2 ± 0.7 µM. The “SI (selectivity index) = CC50/EC50 (WT)” value in series [4] is over 10.5. The CC50 in “in vitro” was over 100 µM. In addition, in series [5], the half-maximal inhibitory concentration (IC50) turned out to be 30 ± 1.5 µM and the inhibition at 10 µM was found to be 53.8%.
The molecule `Cc1cc(O)cc(O)c1C(=O)NCCCCCCCCCCCCOc1ccc(N)cc1` [12c] had an EC50 in series [1] (Trypanosoma brucei) of 20.3 ± 1.3 µM. In series [3], the “RF (resistance factor relative to WT), AQP1-3 KO” value amounted to 1.5 and the EC50 was determined as 29.6 ± 2.2 µM. The “SI (selectivity index) = CC50/EC50 (WT)” value in series [4] was over 4.9. In addition, in the series “in vitro”, the CC50 is over 100 µM.
The corresponding values for `Cc1cc(O)cc(O)c1C(=O)NCCCCCCCCCCCCOc1ccc(N=C2N(C(=O)OC(C)(C)C)CCN2C(=O)OC(C)(C)C)cc1` [14c] are 10.4 ± 0.7 µM, 1.5, 15.7 ± 0.3 µM, over 9.6 and over 100 µM.
Take `C/C(=C\Cc1c(O)c(Cl)c(C)c(C=O)c1O)CC/C=C(\C)[C@@H]1CC(=O)C(C)(C)O1` [ascofuranone, reference compound]: the inhibition at 40 µM in series [5] came out at 100%.
On to `Cc1cc(O)c(C(=O)CCCCCCCCCCCCCCCOc2ccc(C#N)cc2)c(O)c1` [compound 20], for which, in series [1] (T. brucei WT EC50 of 20 versus 7d), the “fold lower EC50 versus 7d” value was found to be 2.5 fold. The molecule further registered an EC50 in series [1] (Trypanosoma brucei) of 5.8 ± 0.7 µM. In addition, in series [3], the EC50 was found to be 8.2 ± 0.9 µM. The “SI (selectivity index) = CC50/EC50 (WT)” value in series [4] is over 17.1. This molecule also showed a CC50 in “in vitro” of over 100 µM. For the same molecule, in series [5], the “TAO inhibition (in words)” value is “lack of TAO inhibition”, the IC50 was over 10 µM and the inhibition at 10 µM was 13.4%.
`Cc1cc(O)cc(OC(=O)CCCCCCCCCCCCCCCOc2ccc(C#N)cc2)c1` [compound 21]: in series [1] (Trypanosoma brucei), the EC50 is over 100 µM. Also, the EC50 in series [3] is over 100 µM. In addition, the CC50 in the series “in vitro” was over 100 µM. For the same molecule, in series [5], the IC50 is over 10 µM and the inhibition at 10 µM turned out to be 30%.
`N=C(N)c1ccc(/N=N/Nc2ccc(C(=N)N)cc2)cc1` [diminazene, reference compound]: the EC50 in series [1] (Trypanosoma brucei) turned out to be 0.095 ± 0.011 µM; in series [2], 0.107 ± 0.019 µM. The “RF (resistance factor relative to WT), B48” value in series [2] (EC50 B48 / EC50 WT) turned out to be 1.1.
As for `N=C(N)c1ccc(OCCCCCOc2ccc(C(=N)N)cc2)cc1` [pentamidine, reference compound], the EC50 in series [1] (Trypanosoma brucei) came to 0.004 ± 0.001 µM; in series [2], 0.208 ± 0.021 µM; in series [3], 0.046 ± 0.003 µM.

Values taken from article PMC8842630, “Imidazoline- and Benzamidine-Based Trypanosome Alternative Oxidase Inhibitors: Synthesis and Structure–Activity Relationship Studies” (ACS Medicinal Chemistry Letters, 2022).
